Source: ChEMBL document CHEMBL4339208, “6-Bromoindolglyoxylamido derivatives as antimicrobial agents and antibiotic enhancers” (Bioorg Med Chem, 2019)
≈ marks a conversion by molar mass, not a printed value. Blank lines part the entries; values can stand above or below the compound they belong to. Calls of active or inactive are those of the source. The rule behind the calls is not given here.

Columns and labels:
HEK293 = test: (§1) Cytotoxicity against HEK293 cells measured after 20 hrs by resazurin dye based fluorescence assay; format: cell-based, Homo sapiens; settings: Homo sapiens, HEK293, 20 h
[1] = tested on: Staphylococcus intermedius; test: Antibacterial activity against Staphylococcus intermedius 1051997 measured after 18 hrs by broth dilution method; format: functional; settings: Staphylococcus intermedius, 1051997, 18 h
Pseudomonas aeruginosa [2] = test: Potentiation of doxycycline-induced antibacterial activity against Pseudomonas aeruginosa ATCC 27853 assessed as concentration required to restore 2 ug/ml doxycycline activity measured after 18 hrs; format: functional
Pseudomonas aeruginosa [3] = test: Antibacterial activity against Pseudomonas aeruginosa ATCC 27853 measured after 18 hrs by broth dilution method; format: functional; settings: ATCC 27853, 18 h
Pseudomonas aeruginosa [4] = test: Disruption of membrane integrity in Pseudomonas aeruginosa PAO1 assessed as decrease in intracellular ATP level at 10 ug/ml by luciferin-luciferase reagent based luminescence assay relative to control; format: functional; parameters: scale not given: the % may be the effect or the level left
Staphylococcus aureus [5] = test: Induction of membrane depolarization in Staphylococcus aureus ATCC 25923 at 10.4 uM measured after 15 mins by DiSC3(5) dye based spectrofluorometric method; format: functional, organism-based
Klebsiella pneumoniae [6] = test: Antibacterial activity against Klebsiella pneumoniae ATCC 700603 at 32 ug/ml measured after 18 hrs by resazurin dye based assay; format: functional, organism-based
Acinetobacter baumannii [7] = test: Antibacterial activity against Acinetobacter baumannii ATCC 19606 at 32 ug/ml measured after 18 hrs by resazurin dye based assay; format: functional, organism-based; settings: ATCC 19606 = CIP 70.34 = JCM 6841
Escherichia coli [8] = test: Antibacterial activity against Escherichia coli ATCC 25922 measured after 18 hrs by broth dilution method; format: functional; settings: ATCC 25922, 18 h
Erythrocyte [9] = test: Hemolytic activity against human RBC at 32 ug/ml incubated for 10 mins under shaking condition measured after 1 hr; format: ADME, cell-based
Candida albicans = test: Antifungal activity against Candida albicans ATCC 90028 measured after 36 hrs; format: functional; settings: ATCC 90028, 36 h
Staphylococcus aureus [10] = test: Antibacterial activity against Staphylococcus aureus ATCC 25923 measured after 18 hrs by broth dilution method; format: functional; settings: ATCC 25923, 18 h
Klebsiella pneumoniae [11] = test: Antibacterial activity against Klebsiella pneumoniae ATCC 700603 measured after 18 hrs by resazurin dye based assay; format: functional; settings: Klebsiella pneumoniae, 700603, 18 h
[12] = as §1; format: cell-based, Homo sapiens; settings: human, HEK293 cells
Pseudomonas aeruginosa [13] = test: Disruption of membrane integrity in Pseudomonas aeruginosa PAO1 assessed as increase in extracellular ATP level by luciferin-luciferase reagent based luminescence assay; format: functional, organism-based
Cryptococcus neoformans = test: Antifungal activity against Cryptococcus neoformans ATCC 208821 measured after 36 hrs by resazurin dye based assay; format: functional; settings: ATCC 208821, 36 h
Erythrocyte [14] = test: Hemolytic activity against human RBC incubated for 10 mins under shaking condition measured after 1 hr; format: ADME, cell-based
Staphylococcus aureus [15] = test: Disruption of membrane integrity in Staphylococcus aureus ATCC 25923 assessed as increase in extracellular ATP level by luciferin-luciferase reagent based luminescence assay; format: functional, organism-based
Pseudomonas aeruginosa [16] = test: Induction of membrane depolarization in Pseudomonas aeruginosa PAO1 at 10.4 uM measured after 15 mins by DiSC3(5) dye based spectrofluorometric method; format: functional, organism-based
Acinetobacter baumannii [17] = test: Antibacterial activity against Acinetobacter baumannii ATCC 19606 measured after 18 hrs by resazurin dye based assay; format: functional; settings: ATCC 19606 = CIP 70.34 = JCM 6841, 18 h
Staphylococcus aureus [18] = test: Induction of membrane depolarization in Staphylococcus aureus ATCC 25923 measured after 15 mins by DiSC3(5) dye based spectrofluorometric method; format: functional, organism-based
Escherichia coli [19] = test: Potentiation of chloramphenicol-induced antibacterial activity against Escherichia coli ATCC 25922 assessed as concentration required to restore 2 ug/ml chloramphenicol activity measured after 18 hrs; format: functional
Acinetobacter baumannii [20] = test: Potentiation of chloramphenicol-induced antibacterial activity against Acinetobacter baumannii ATCC 19606 assessed as concentration required to restore 2 ug/ml chloramphenicol activity measured after 18 hrs; format: functional, ATCC 19606 = CIP 70.34 = JCM 6841
Klebsiella pneumoniae [21] = test: Potentiation of chloramphenicol-induced antibacterial activity against Klebsiella pneumoniae ATCC 700603 assessed as concentration required to restore 2 ug/ml chloramphenicol activity measured after 18 hrs; format: functional
Pseudomonas aeruginosa [22] = test: Potentiation of chloramphenicol-induced antibacterial activity against Pseudomonas aeruginosa ATCC 27853 assessed as concentration required to restore 2 ug/ml chloramphenicol activity measured after 18 hrs; format: functional
Klebsiella pneumoniae [23] = test: Potentiation of erythromycin-induced antibacterial activity against Klebsiella pneumoniae ATCC 700603 assessed as concentration required to restore 2 ug/ml erythromycin activity measured after 18 hrs; format: functional
Escherichia coli [24] = test: Potentiation of erythromycin-induced antibacterial activity against Escherichia coli ATCC 25922 assessed as concentration required to restore 2 ug/ml erythromycin activity measured after 18 hrs; format: functional
Pseudomonas aeruginosa [25] = test: Potentiation of erythromycin-induced antibacterial activity against Pseudomonas aeruginosa ATCC 27853 assessed as concentration required to restore 2 ug/ml erythromycin activity measured after 18 hrs; format: functional
Acinetobacter baumannii [26] = test: Potentiation of erythromycin-induced antibacterial activity against Acinetobacter baumannii ATCC 19606 assessed as concentration required to restore 2 ug/ml erythromycin activity measured after 18 hrs; format: functional, ATCC 19606 = CIP 70.34 = JCM 6841
Acinetobacter baumannii [27] = test: Potentiation of doxycycline-induced antibacterial activity against Acinetobacter baumannii ATCC 19606 assessed as concentration required to restore 2 ug/ml doxycycline activity measured after 18 hrs; format: functional, ATCC 19606 = CIP 70.34 = JCM 6841
Klebsiella pneumoniae [28] = test: Potentiation of doxycycline-induced antibacterial activity against Klebsiella pneumoniae ATCC 700603 assessed as concentration required to restore 2 ug/ml doxycycline activity measured after 18 hrs; format: functional
Escherichia coli [29] = test: Potentiation of doxycycline-induced antibacterial activity against Escherichia coli ATCC 25922 assessed as concentration required to restore 2 ug/ml doxycycline activity measured after 18 hrs; format: functional
Pseudomonas aeruginosa [30] = test: Potentiation of nalidixic acid-induced antibacterial activity against Pseudomonas aeruginosa ATCC 27853 assessed as concentration required to restore 2 ug/ml nalidixic acid activity measured after 18 hrs; format: functional
Klebsiella pneumoniae [31] = test: Potentiation of nalidixic acid-induced antibacterial activity against Klebsiella pneumoniae ATCC 700603 assessed as concentration required to restore 2 ug/ml nalidixic acid activity measured after 18 hrs; format: functional
Escherichia coli [32] = test: Potentiation of nalidixic acid-induced antibacterial activity against Escherichia coli ATCC 25922 assessed as concentration required to restore 2 ug/ml nalidixic acid activity measured after 18 hrs; format: functional
Acinetobacter baumannii [33] = test: Potentiation of nalidixic acid-induced antibacterial activity against Acinetobacter baumannii ATCC 19606 assessed as concentration required to restore 2 ug/ml nalidixic acid activity measured after 18 hrs; format: functional, ATCC 19606 = CIP 70.34 = JCM 6841

Structure (SMILES): CC/C(=C(\c1ccccc1)c1ccc(OCCN(C)C)cc1)c1ccccc1 [TAMOXIFEN]
IC50 (HEK293): 24 µM

Structure (SMILES): CC[C@H]1OC(=O)[C@H](C)[C@@H](O[C@H]2C[C@@](C)(OC)[C@@H](O)[C@H](C)O2)[C@H](C)[C@@H](O[C@@H]2O[C@H](C)C[C@H](N(C)C)[C@H]2O)[C@](C)(O)C[C@@H](C)C(=O)[C@H](C)[C@@H](O)[C@]1(C)O [ERYTHROMYCIN]
MIC (Pseudomonas aeruginosa [3]): > 200 µM | Activity (Klebsiella pneumoniae [23]): 50 µM | Activity (Escherichia coli [24]): 50 µM | Activity (Pseudomonas aeruginosa [25]): 200 µM | MIC (Escherichia coli [8]): > 200 µM | MIC (Klebsiella pneumoniae [11]): > 200 µM | Activity (Acinetobacter baumannii [26]): 25 µM | MIC (Acinetobacter baumannii [17]): 200 µM (≈ 147 µg/mL)

Structure (SMILES): CCn1cc(C(=O)O)c(=O)c2ccc(C)nc21 [NALIDIXIC ACID]
Activity (Pseudomonas aeruginosa [30]): 50 µM | MIC (Pseudomonas aeruginosa [3]): > 200 µM | Activity (Klebsiella pneumoniae [31]): 25 µM | MIC (Escherichia coli [8]): > 200 µM | Activity (Escherichia coli [32]): >200 µM | Activity (Acinetobacter baumannii [33]): 200 µM | MIC (Klebsiella pneumoniae [11]): 100 µM (≈ 23.2 µg/mL) | MIC (Acinetobacter baumannii [17]): > 200 µM

Second part, led by results:

MIC [1]: 3.12 µM (≈ 2.2 µg/mL) | MIC (Pseudomonas aeruginosa [3]): 100 µM (≈ 70.2 µg/mL) | MIC (Escherichia coli [8]): 100 µM (≈ 70.2 µg/mL) | MIC (Candida albicans): 17.2 µM (≈ 12.1 µg/mL) | MIC (Staphylococcus aureus [10]): 6.25 µM (≈ 4.39 µg/mL) | MIC (Klebsiella pneumoniae [11]): > 34 µM | Activity (Pseudomonas aeruginosa [13]): Dose-dependent effect | MIC (Cryptococcus neoformans): 1.1 µM (≈ 0.773 µg/mL) | MIC (Acinetobacter baumannii [17]): > 34 µM
Structure (SMILES): O=C(NCCCNCCCCNCCCNC(=O)C(=O)c1c[nH]c2cc(Br)ccc12)C(=O)c1c[nH]c2cc(Br)ccc12
Activity (Pseudomonas aeruginosa [2]): 6.25 µM | Activity (Pseudomonas aeruginosa [4]): 10% | Activity (Staphylococcus aureus [5]): Active | Activity (Klebsiella pneumoniae [6]): inactive | Activity (Acinetobacter baumannii [7]): inactive | Activity (Erythrocyte [9]): Non-Toxic | CC50 at 20 h [12]: 5.06 µM | HC10 (Erythrocyte [14]): > 34 µM | Activity (Staphylococcus aureus [15]): Dose-dependent effect | Activity (Pseudomonas aeruginosa [16]): Active | Activity (Staphylococcus aureus [18]): Dose-dependent effect

MIC [1]: 3 to 6 µM (≈ 0.969 to 1.94 µg/mL) | MIC (Pseudomonas aeruginosa [3]): > 200 µM | MIC (Escherichia coli [8]): > 200 µM | MIC (Staphylococcus aureus [10]): 1.5 to 3 µM (≈ 0.485 to 0.969 µg/mL) | MIC (Klebsiella pneumoniae [11]): 50 µM (≈ 16.2 µg/mL) | MIC (Acinetobacter baumannii [17]): > 200 µM
Structure (SMILES): O=C(N[C@H](CO)[C@H](O)c1ccc([N+](=O)[O-])cc1)C(Cl)Cl [CHLORAMPHENICOL]
Activity (Escherichia coli [19]): >200 µM | Activity (Acinetobacter baumannii [20]): >200 µM | Activity (Klebsiella pneumoniae [21]): 200 µM | Activity (Pseudomonas aeruginosa [22]): >200 µM

MIC (Pseudomonas aeruginosa [3]): 25 µM | MIC (Escherichia coli [8]): 50 µM | MIC (Klebsiella pneumoniae [11]): 25 µM | MIC (Acinetobacter baumannii [17]): 12.5 µM
Structure (SMILES): C[C@H]1c2cccc(O)c2C(=O)C2=C(O)[C@]3(O)C(=O)C(C(N)=O)=C(O)[C@@H](N(C)C)[C@@H]3[C@@H](O)[C@@H]21.O [DOXYCYCLINE]
Activity (Acinetobacter baumannii [27]): 25 µM | Activity (Pseudomonas aeruginosa [2]): 12.5 µM | Activity (Klebsiella pneumoniae [28]): 6.25 µM | Activity (Escherichia coli [29]): 6.25 µM
